pIC50, pKi: −log10 of the molar value.
How the values were obtained:
[1] = target: Tyrosine-protein kinase Fyn (Homo sapiens, UniProt P06241); assay: biochemical; assay type: cell-based, Insect cells; conditions: insect cells;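 further: enzymatic inhibition of Fyn kinase activity measured with Poly(Glu:Tyr) as the phosphorylation substrate; in other assays of this panel Not Active means under 50% inhibition at 10 µM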
[2] = DRUGMATRIX: beta-Lactamase enzyme inhibition (substrate: Nitrocefin); parameters: species or system Bacillus cereus; conditions: Not Active = under 50% inhibition at 10 µM
[3] = DRUGMATRIX: Platelet-Derived Growth Factor (PDGF) radioligand binding (ligand: [125I] PDGF); assay type: cell-based; conditions: nih3t3; Not Active = under 50% inhibition at 10 µM
Histamine H2 receptor = Histamine H2 receptor (Homo sapiens, UniProt P25021); assay type: cell membranes, CHO-K1, Membrane; conditions: cho-k1; further: in other assays of this panel Not Active means under 50% inhibition at 10 µM
Sequence of Histamine H2 receptor (P25021 whole entry): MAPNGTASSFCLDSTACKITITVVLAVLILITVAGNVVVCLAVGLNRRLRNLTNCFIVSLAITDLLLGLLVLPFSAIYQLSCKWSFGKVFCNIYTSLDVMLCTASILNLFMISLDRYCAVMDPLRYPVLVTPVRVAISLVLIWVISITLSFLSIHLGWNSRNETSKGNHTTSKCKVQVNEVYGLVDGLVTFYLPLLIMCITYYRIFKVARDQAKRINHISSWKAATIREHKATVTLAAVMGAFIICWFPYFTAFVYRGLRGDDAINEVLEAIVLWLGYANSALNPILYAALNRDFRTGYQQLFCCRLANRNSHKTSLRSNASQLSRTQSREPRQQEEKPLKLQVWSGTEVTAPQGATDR

[4] = DRUGMATRIX: GABAA, Chloride Channel, TBOB radioligand binding (ligand: [3H] TBOB); assay type: cell membranes, Rattus norvegicus, Wistar, Cerebral cortex, Membrane; conditions: Not Active = under 50% inhibition at 10 µM
Leukotriene C4 synthase = target: T1, Leukotriene C4 synthase (Cavia porcellus, UniProt A6XA80); assay: biochemical; assay type: tissue-based, Lung;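 further: enzyme inhibition assay of leukotriene C4 synthase, using LTA4 as the substrate; in other assays of this panel Not Active means under 50% inhibition at 10 µM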
T1 sequence (A6XA80 whole entry): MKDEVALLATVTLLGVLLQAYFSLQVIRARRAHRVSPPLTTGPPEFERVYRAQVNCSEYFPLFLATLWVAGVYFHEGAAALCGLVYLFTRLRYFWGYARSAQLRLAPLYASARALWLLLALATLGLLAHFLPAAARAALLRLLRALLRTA

[5] = target: Beta-1 adrenergic receptor (Homo sapiens, UniProt P08588); assay: DRUGMATRIX: Adrenergic beta1 radioligand binding (ligand: [125I] Cyanopindolol); assay type: cell membranes, CHO-K1, Membrane; conditions: cho-k1; Not Active = under 50% inhibition at 10 µM
Sequence of Beta-1 adrenergic receptor (P08588 whole entry): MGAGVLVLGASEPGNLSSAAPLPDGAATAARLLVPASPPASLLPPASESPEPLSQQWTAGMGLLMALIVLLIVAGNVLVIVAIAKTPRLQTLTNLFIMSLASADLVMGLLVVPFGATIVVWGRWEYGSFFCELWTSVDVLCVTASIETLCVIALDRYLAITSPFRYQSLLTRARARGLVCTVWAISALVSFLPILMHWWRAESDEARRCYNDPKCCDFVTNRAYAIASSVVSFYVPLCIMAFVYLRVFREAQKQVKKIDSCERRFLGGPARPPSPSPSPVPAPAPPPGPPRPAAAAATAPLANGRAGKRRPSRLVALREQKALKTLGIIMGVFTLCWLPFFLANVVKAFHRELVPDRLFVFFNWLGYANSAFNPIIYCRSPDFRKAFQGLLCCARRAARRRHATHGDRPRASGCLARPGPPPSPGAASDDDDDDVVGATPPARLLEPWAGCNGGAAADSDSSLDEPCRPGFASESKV

Melanocortin receptor 3 = Melanocortin receptor 3 (Homo sapiens, UniProt P41968); assay type: cell membranes, Membrane; conditions: hek293; further: in other assays of this panel Not Active means under 50% inhibition at 10 µM
Sequence of Melanocortin receptor 3 (P41968 whole entry): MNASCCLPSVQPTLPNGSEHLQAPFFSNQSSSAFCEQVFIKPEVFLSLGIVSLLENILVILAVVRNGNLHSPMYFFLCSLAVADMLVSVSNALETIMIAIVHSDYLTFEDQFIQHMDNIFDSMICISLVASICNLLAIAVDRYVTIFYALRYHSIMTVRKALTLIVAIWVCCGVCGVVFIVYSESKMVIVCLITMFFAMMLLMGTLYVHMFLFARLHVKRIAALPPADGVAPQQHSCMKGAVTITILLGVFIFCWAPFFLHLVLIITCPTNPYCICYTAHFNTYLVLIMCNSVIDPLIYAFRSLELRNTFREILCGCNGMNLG

[6] = target: T2, Neuropeptide Y receptor type 2 (Homo sapiens, UniProt P49146); assay type: cell membranes, Membrane; conditions: kan-ts; further: in other assays of this panel Not Active means under 50% inhibition at 10 µM
T2 sequence (P49146 whole entry): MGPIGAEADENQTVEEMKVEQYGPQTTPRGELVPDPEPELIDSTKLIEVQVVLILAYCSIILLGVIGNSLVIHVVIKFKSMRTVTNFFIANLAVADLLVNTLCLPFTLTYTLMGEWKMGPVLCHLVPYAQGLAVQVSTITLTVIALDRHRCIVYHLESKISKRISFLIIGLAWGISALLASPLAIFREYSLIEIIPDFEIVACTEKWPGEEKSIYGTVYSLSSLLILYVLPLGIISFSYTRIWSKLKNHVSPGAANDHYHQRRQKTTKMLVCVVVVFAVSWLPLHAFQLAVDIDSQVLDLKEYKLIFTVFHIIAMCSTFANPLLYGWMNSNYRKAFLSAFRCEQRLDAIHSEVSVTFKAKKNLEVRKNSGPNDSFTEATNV

D(4) dopamine receptor = target: T3, D(4) dopamine receptor (Homo sapiens, UniProt P21917); assay: DRUGMATRIX: Dopamine D4.2 radioligand binding (ligand: [3H] Spiperone); assay type: cell membranes, CHO-K1, Membrane; conditions: cho-k1; Not Active = under 50% inhibition at 10 µM
T3 sequence (P21917 whole entry): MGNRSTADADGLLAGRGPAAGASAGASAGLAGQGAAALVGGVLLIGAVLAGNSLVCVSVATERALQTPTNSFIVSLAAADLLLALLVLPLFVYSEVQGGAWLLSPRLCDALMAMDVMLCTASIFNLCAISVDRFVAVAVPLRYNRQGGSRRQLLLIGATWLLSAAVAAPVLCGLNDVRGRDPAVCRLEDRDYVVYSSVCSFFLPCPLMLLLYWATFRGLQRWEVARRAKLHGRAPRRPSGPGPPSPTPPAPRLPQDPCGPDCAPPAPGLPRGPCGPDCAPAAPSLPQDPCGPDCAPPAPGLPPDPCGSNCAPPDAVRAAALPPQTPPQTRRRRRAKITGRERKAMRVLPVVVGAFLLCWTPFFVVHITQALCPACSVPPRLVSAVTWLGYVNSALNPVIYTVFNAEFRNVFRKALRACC

[7] = target: T4, Alpha-1A adrenergic receptor (Rattus norvegicus, UniProt P43140); assay: DRUGMATRIX: Alpha-1A adrenergic receptor radioligand binding (ligand: prazosin); assay type: cell membranes, Wistar, Submaxillary gland, Membrane; conditions: Not Active = under 50% inhibition at 10 µM
T4 sequence (P43140 whole entry): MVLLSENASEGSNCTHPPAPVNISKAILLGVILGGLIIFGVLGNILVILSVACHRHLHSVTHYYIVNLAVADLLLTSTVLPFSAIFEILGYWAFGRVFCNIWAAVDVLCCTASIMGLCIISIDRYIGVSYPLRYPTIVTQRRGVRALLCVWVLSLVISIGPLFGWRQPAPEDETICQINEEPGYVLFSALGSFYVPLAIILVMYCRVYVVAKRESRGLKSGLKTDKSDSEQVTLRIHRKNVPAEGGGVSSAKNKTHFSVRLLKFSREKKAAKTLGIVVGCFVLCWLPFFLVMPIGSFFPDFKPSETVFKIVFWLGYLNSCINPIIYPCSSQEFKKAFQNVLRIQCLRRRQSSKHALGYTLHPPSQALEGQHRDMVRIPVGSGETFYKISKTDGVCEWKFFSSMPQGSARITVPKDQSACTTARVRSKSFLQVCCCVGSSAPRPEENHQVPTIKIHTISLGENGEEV

[8] = target: Vascular endothelial growth factor receptor 1 (Homo sapiens, UniProt P17948); assay type: cell-based; conditions: huvec; further: in other assays of this panel Not Active means under 50% inhibition at 10 µM
Sequence of Vascular endothelial growth factor receptor 1 (P17948 whole entry): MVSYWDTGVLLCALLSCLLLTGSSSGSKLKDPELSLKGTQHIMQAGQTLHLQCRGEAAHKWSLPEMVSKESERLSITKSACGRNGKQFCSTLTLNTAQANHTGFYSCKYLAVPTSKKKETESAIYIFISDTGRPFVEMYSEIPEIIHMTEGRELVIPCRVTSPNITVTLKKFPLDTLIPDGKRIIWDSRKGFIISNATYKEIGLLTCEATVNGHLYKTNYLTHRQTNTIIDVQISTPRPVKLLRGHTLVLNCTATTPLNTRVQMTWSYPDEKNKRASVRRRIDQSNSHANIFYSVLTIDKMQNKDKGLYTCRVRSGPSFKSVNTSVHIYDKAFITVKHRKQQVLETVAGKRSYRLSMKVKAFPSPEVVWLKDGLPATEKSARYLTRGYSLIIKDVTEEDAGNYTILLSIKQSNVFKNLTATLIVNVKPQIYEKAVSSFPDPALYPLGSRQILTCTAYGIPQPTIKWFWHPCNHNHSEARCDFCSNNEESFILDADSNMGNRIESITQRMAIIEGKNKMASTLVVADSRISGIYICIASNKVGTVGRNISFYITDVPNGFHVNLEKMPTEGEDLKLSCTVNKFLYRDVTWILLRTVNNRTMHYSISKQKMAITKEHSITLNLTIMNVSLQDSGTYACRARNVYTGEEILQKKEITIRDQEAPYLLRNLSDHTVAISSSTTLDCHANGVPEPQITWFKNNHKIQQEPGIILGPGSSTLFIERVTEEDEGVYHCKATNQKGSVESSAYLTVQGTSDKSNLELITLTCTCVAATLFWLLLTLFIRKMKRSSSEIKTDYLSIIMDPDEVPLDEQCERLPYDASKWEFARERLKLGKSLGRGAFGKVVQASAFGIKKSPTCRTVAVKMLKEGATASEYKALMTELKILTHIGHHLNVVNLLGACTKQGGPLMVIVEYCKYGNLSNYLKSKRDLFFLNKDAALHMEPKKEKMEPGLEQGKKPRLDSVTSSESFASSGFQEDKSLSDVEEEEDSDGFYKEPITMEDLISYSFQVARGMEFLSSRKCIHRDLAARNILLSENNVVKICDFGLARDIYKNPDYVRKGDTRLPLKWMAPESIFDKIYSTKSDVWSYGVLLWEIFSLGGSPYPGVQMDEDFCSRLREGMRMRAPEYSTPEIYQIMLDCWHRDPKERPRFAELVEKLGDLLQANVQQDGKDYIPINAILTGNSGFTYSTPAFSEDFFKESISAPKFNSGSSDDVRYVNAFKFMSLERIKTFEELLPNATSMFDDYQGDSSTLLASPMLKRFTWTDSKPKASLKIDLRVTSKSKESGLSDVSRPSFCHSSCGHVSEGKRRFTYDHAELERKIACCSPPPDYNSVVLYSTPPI

[9] = DRUGMATRIX: Glutamate, NMDA, Phencyclidine radioligand binding (ligand: [3H] TCP); assay type: cell membranes, Rattus norvegicus, Wistar, Cerebral cortex, Membrane; conditions: Not Active = under 50% inhibition at 10 µM
[10] = DRUGMATRIX: Nicotinic Acetylcholine radioligand binding (ligand: [125I] Epibatidine); assay type: cell membranes, Membrane; conditions: imr-32; Not Active = under 50% inhibition at 10 µM
Melanocortin receptor 4 = Melanocortin receptor 4 (Homo sapiens, UniProt P32245); assay type: cell membranes, Membrane; conditions: hek293; further: in other assays of this panel Not Active means under 50% inhibition at 10 µM
Sequence of Melanocortin receptor 4 (P32245 whole entry): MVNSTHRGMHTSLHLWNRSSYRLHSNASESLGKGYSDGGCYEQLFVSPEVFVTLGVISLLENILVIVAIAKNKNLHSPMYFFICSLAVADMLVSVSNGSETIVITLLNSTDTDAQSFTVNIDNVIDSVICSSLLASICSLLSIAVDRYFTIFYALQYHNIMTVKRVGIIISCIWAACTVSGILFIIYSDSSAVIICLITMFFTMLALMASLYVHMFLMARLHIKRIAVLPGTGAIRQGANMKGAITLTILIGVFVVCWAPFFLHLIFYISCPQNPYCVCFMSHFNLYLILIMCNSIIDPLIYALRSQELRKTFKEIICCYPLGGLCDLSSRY

Progesterone receptor = target: T5, Progesterone receptor (Bos taurus, UniProt Q690N0); assay: DRUGMATRIX: Progesterone radioligand binding (ligand: [3H] R-5020); assay type: tissue-based, Uterus; conditions: Not Active = under 50% inhibition at 10 µM; for pIC50: read-out: IC50; for pKi: read-out: Ki
T5 sequence (Q690N0 whole entry): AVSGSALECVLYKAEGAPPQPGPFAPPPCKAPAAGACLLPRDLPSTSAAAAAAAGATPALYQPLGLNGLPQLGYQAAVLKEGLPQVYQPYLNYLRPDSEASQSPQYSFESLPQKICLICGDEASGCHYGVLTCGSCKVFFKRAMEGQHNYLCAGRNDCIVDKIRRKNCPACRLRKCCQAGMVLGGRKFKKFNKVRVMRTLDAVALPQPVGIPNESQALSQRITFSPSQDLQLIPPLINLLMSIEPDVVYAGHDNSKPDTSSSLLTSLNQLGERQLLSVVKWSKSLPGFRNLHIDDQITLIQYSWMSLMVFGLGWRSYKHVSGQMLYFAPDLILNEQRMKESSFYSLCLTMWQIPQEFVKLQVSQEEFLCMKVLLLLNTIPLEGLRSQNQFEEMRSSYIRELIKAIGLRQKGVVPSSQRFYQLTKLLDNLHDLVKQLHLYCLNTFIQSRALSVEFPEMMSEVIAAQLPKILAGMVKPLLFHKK

[11] = DRUGMATRIX: Calcium Channel Type L, Benzothiazepine radioligand binding (ligand: [3H] Diltiazem); assay type: cell membranes, Rattus norvegicus, Wistar, Brain, Membrane; conditions: Not Active = under 50% inhibition at 10 µM

Sequence of Tyrosine-protein kinase Fyn (P06241 whole entry): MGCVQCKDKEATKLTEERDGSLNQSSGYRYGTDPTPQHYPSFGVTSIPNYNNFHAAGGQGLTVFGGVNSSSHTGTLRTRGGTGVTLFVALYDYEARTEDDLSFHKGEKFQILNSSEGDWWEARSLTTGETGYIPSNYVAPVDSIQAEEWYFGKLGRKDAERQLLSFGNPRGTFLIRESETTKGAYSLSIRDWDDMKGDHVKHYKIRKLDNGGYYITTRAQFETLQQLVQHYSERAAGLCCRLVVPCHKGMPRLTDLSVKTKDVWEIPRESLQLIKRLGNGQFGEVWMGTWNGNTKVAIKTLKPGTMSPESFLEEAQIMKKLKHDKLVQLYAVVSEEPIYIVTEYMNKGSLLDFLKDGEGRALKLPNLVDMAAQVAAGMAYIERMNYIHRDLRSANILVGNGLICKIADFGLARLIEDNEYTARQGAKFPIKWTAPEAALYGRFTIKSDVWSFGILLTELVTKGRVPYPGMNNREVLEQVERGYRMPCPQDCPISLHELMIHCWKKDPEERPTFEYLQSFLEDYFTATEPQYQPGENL

Compound | IC50 [1] | IC50 [2] | Ki [2] | IC50 [3] | Ki [3] | IC50 (Histamine H2 receptor) | IC50 [4] | Ki [4] | IC50 (Leukotriene C4 synthase) | IC50 [5] | IC50 (Melanocortin receptor 3) | IC50 [6] | IC50 (D(4) dopamine receptor) | IC50 [7] | IC50 [8] | IC50 [9] | Ki [9] | IC50 [10] | Ki [10] | IC50 (Melanocortin receptor 4) | other results
NC(=O)c1ccccc1O [SALICYLAMIDE] | Not Active | Not Active | Not Active | Not Active | Not Active | Not Active | Not Active | Not Active | Not Active | Not Active | Not Active | Not Active | Not Active | Not Active | Not Active | Not Active | Not Active | Not Active | Not Active | Not Active | IC50 (Progesterone receptor): Not Active; IC50 [11]: Not Active; Ki [11]: Not Active
Cc1ncc([N+](=O)[O-])n1CC(C)O (stereo not given) [SECNIDAZOLE] | Not Active | Not Active | Not Active | Not Active | Not Active | Not Active | Not Active | Not Active | Not Active | Not Active | Not Active | Not Active | Not Active | Not Active | Not Active | Not Active | Not Active | Not Active | Not Active | Not Active | IC50 (Progesterone receptor): Not Active; IC50 [11]: Not Active; Ki [11]: Not Active
CN[C@@H]1[C@@H](O)[C@@H](O[C@@H]2[C@@H](O)[C@H](O[C@H]3OC(CN)=CC[C@H]3N)[C@@H](N)C[C@H]2N)OC[C@]1(C)O [SISOMICIN] | Not Active | Not Active | Not Active | Not Active | Not Active | Not Active | Not Active | Not Active | Not Active | Not Active | Not Active | Not Active | Not Active | Not Active | Not Active | Not Active | Not Active | Not Active | Not Active | Not Active | IC50 (Progesterone receptor): Not Active; IC50 [11]: Not Active; Ki [11]: Not Active
CC(=O)S[C@@H]1CC2=CC(=O)CC[C@]2(C)[C@H]2CC[C@@]3(C)[C@@H](CC[C@@]34CCC(=O)O4)[C@H]12 [SPIRONOLACTONE] | Not Active | Not Active | Not Active | Not Active | Not Active | Not Active | Not Active | Not Active | Not Active | Not Active | Not Active | Not Active | Not Active | Not Active | Not Active | Not Active | Not Active | Not Active | Not Active | Not Active | pIC50 (Progesterone receptor): 5.78; pKi (Progesterone receptor): 6.66; IC50 [11]: Not Active; Ki [11]: Not Active
C[C@]12Cc3c[nH]nc3C[C@@H]1CC[C@@H]1[C@@H]2CC[C@@]2(C)[C@H]1CC[C@]2(C)O [STANOZOLOL] | Not Active | Not Active | Not Active | Not Active | Not Active | Not Active | Not Active | Not Active | Not Active | Not Active | Not Active | Not Active | Not Active | Not Active | Not Active | Not Active | Not Active | Not Active | Not Active | Not Active | pIC50 (Progesterone receptor): 5.43; pKi (Progesterone receptor): 6.32; IC50 [11]: Not Active; Ki [11]: Not Active
CN(N=O)C(=O)N[C@@H](C=O)[C@@H](O)[C@H](O)[C@H](O)CO [STREPTOZOCIN] | Not Active | Not Active | Not Active | Not Active | Not Active | Not Active | Not Active | Not Active | Not Active | Not Active | Not Active | Not Active | Not Active | Not Active | Not Active | Not Active | Not Active | Not Active | Not Active | Not Active | IC50 (Progesterone receptor): Not Active; IC50 [11]: Not Active; Ki [11]: Not Active
